Patent US20090018111A1, “Novel Antimicrobial Medicament” (priority 2004, published 2009)
Like-named read-outs stand apart in the source and are kept apart here.

How the values were obtained:
E. faecalis ATCC19433 = assay: Sensitivity test (agar dilution); format: cell-based, Enterococcus faecalis; conditions: Enterococcus faecalis, E. faecalis ATCC19433
Procedure, shortened: (§1)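 Standard Japanese agar dilution method. Drugs alone or combined were serially halved in Mueller Hinton agar, inoculated with overnight (37° C) cultures at about 10^6 CFU/ml. Values are MICs.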

M. catarrhalis ATCC25238 = assay: Sensitivity test (agar dilution); format: cell-based, Moraxella catarrhalis; conditions: Moraxella catarrhalis, M. catarrhalis ATCC25238
Procedure, shortened: as §1

M. catarrhalis ATCC8176 = assay: Sensitivity test (agar dilution); format: cell-based, Moraxella catarrhalis; conditions: Moraxella catarrhalis, M. catarrhalis ATCC8176
Procedure, shortened: as §1

P. aeruginosa IFO3451 = assay: Sensitivity test (agar dilution); format: cell-based, Pseudomonas aeruginosa; conditions: Pseudomonas aeruginosa, P. aeruginosa IFO3451
Procedure, shortened: as §1

P. aeruginosa TL-2666 = assay: Sensitivity test (agar dilution); format: cell-based, Pseudomonas aeruginosa; conditions: Pseudomonas aeruginosa, P. aeruginosa TL-2666
Procedure, shortened: as §1

P. aeruginosa TL-2667 = assay: Sensitivity test (agar dilution); format: cell-based, Pseudomonas aeruginosa; conditions: Pseudomonas aeruginosa, P. aeruginosa TL-2667
Procedure, shortened: as §1

S. epidermidis IAM1296 = assay: Sensitivity test (agar dilution); format: cell-based, Staphylococcus epidermidis; conditions: Staphylococcus epidermidis, S. epidermidis IAM1296
Procedure, shortened: as §1

E. cloacae GN7471 = assay: Sensitivity test (agar dilution); format: cell-based, Enterobacter cloacae; conditions: Enterobacter cloacae, E. cloacae GN7471
Procedure, shortened: as §1

E. coli ML1410 RP4 = assay: microbe, parasite or virus in culture; format: cell-based, Escherichia coli; conditions: Escherichia coli, E. coli ML1410 RP4
Procedure, shortened: as §1

C. freundii GN346 = assay: Sensitivity test (agar dilution); format: cell-based, Citrobacter freundii; conditions: Citrobacter freundii, C. freundii GN346
Procedure, shortened: as §1

S. marcescens X 100 = assay: Sensitivity test (agar dilution); format: cell-based, Serratia marcescens; conditions: Serratia marcescens, S. marcescens X 100
Procedure, shortened: as §1

S. marcescens GN6473 = assay: Sensitivity test (agar dilution); format: cell-based, Serratia marcescens; conditions: Serratia marcescens, S. marcescens GN6473
Procedure, shortened: as §1

P. mirabiris GN2425 = assay: Sensitivity test (agar dilution); format: cell-based, Proteus mirabilis; conditions: Proteus mirabilis, P. mirabiris GN2425
Procedure, shortened: as §1

[1] = ATCC19433, drug alone, read-out: MIC alone
[2] = ATCC25238, drug alone, read-out: MIC alone
[3] = ATCC8176, drug alone, read-out: MIC alone
[4] = IFO3451, drug alone, read-out: MIC alone
[5] = TL2666, drug alone, read-out: MIC alone
[6] = TL2667, drug alone, read-out: MIC alone
[7] = IAM1296, drug alone, read-out: MIC alone
[8] = GN7471, drug alone, read-out: MIC alone
[9] = ML1410RP4, read-out: MIC alone, drug alone
[10] = GN346, drug alone, read-out: MIC alone
[11] = X100, drug alone, read-out: MIC alone
[12] = GN6473, drug alone, read-out: MIC alone

Molecule `CC(=N)N1CC[C@H](SC2=C(C(=O)O)N3C(=O)[C@H]([C@@H](C)O)[C@H]3C2)C1` [PAPM, panipenem] has an MIC (E. faecalis ATCC19433; ATCC19433, Concomitant (PAPM:SM = 1:1), read-out: MIC concomitant) of 1 µg/mL, an MIC (E. faecalis ATCC19433; [1]) of 2 µg/mL and an MIC (M. catarrhalis ATCC25238; ATCC25238, Concomitant (PAPM:SM = 1:1), read-out: MIC concomitant) of at most 0.002 µg/mL. The MIC (M. catarrhalis ATCC25238; [2]) was 0.008 µg/mL, the MIC (M. catarrhalis ATCC8176; ATCC8176, Concomitant (PAPM:SM = 1:1), read-out: MIC concomitant) was at most 0.002 µg/mL and the MIC (M. catarrhalis ATCC8176; [3]) was 0.008 µg/mL. It also gave an MIC (P. aeruginosa IFO3451; IFO3451, Concomitant (PAPM:SM = 1:1), read-out: MIC concomitant) of 2 µg/mL, an MIC (P. aeruginosa IFO3451; [4]) of 4 µg/mL and an MIC (P. aeruginosa TL-2666; TL2666, Concomitant (PAPM:SM = 1:1), read-out: MIC concomitant) of 8 µg/mL. The MIC (P. aeruginosa TL-2666; [5]) was 8 µg/mL, the MIC (P. aeruginosa TL-2667; TL2667, Concomitant (PAPM:SM = 1:1), read-out: MIC concomitant) was 16 µg/mL and the MIC (P. aeruginosa TL-2667; [6]) was 16 µg/mL. It also gave an MIC (S. epidermidis IAM1296; IAM1296, Concomitant (PAPM:SM = 1:1), read-out: MIC concomitant) of 0.016 µg/mL, an MIC (S. epidermidis IAM1296; [7]) of 0.5 µg/mL and an MIC (E. cloacae GN7471; GN7471, Concomitant (PAPM:SM = 1:1), read-out: MIC concomitant) of 0.125 µg/mL. For the same molecule, the MIC (E. cloacae GN7471; [8]) was 0.25 µg/mL, the MIC (E. coli ML1410 RP4; [9]) was 0.5 µg/mL and the MIC (E. coli ML1410 RP4; ML1410RP4, read-out: MIC concomitant, Concomitant (PAPM:SM = 1:1)) was 0.125 µg/mL. The MIC (C. freundii GN346; GN346, Concomitant (PAPM:SM = 1:1), read-out: MIC concomitant) was 0.25 µg/mL, the MIC (C. freundii GN346; [10]) was 0.5 µg/mL and the MIC (S. marcescens X 100; X100, Concomitant (PAPM:SM = 1:1), read-out: MIC concomitant) was 0.125 µg/mL. It also gave an MIC (S. marcescens X 100; [11]) of 0.25 µg/mL, an MIC (S. marcescens GN6473; GN6473, Concomitant (PAPM:SM = 1:1), read-out: MIC concomitant) of 0.25 µg/mL and an MIC (S. marcescens GN6473; [12]) of 0.5 µg/mL. The MIC (P. mirabiris GN2425; GN2425, Concomitant (PAPM:SM = 1:1), read-out: MIC concomitant) was 0.125 µg/mL and the MIC (P. mirabiris GN2425; GN2425, drug alone, read-out: MIC alone) was 1 µg/mL.

`CCN1CCN(C(=O)N[C@@H](C(=O)N[C@@H]2C(=O)N3[C@@H]2SC(C)(C)[C@@H]3C(=O)O)c2ccccc2)C(=O)C1=O` [PIPC, piperacillin] was tested, and the MIC (E. faecalis ATCC19433; ATCC19433, Concomitant (PIPC:SM = 1:1), read-out: MIC concomitant) was 0.5 µg/mL, the MIC (E. faecalis ATCC19433; [1]) was 2 µg/mL and the MIC (M. catarrhalis ATCC25238; ATCC25238, Concomitant (PIPC:SM = 1:1), read-out: MIC concomitant) was at most 0.002 µg/mL. For the same molecule, the MIC (M. catarrhalis ATCC25238; [2]) was 0.008 µg/mL, the MIC (M. catarrhalis ATCC8176; ATCC8176, Concomitant (PIPC:SM = 1:1), read-out: MIC concomitant) was at most 0.002 µg/mL and the MIC (M. catarrhalis ATCC8176; [3]) was 0.016 µg/mL. For the same molecule, the MIC (P. aeruginosa IFO3451; IFO3451, Concomitant (PIPC:SM = 1:1), read-out: MIC concomitant) was 8 µg/mL, the MIC (P. aeruginosa IFO3451; [4]) was 4 µg/mL and the MIC (P. aeruginosa TL-2666; TL2666, Concomitant (PIPC:SM = 1:1), read-out: MIC concomitant) was 16 µg/mL. It also gave an MIC (P. aeruginosa TL-2666; [5]) of 1 µg/mL, an MIC (P. aeruginosa TL-2667; TL2667, Concomitant (PIPC:SM = 1:1), read-out: MIC concomitant) of 16 µg/mL and an MIC (P. aeruginosa TL-2667; [6]) of 2 µg/mL. The MIC (S. epidermidis IAM1296; IAM1296, Concomitant (PIPC:SM = 1:1), read-out: MIC concomitant) was 0.016 µg/mL, the MIC (S. epidermidis IAM1296; [7]) was 2 µg/mL and the MIC (E. cloacae GN7471; GN7471, Concomitant (PIPC:SM = 1:1), read-out: MIC concomitant) was 8 µg/mL. For the same molecule, the MIC (E. cloacae GN7471; [8]) was 16 µg/mL, the MIC (E. coli ML1410 RP4; [9]) was over 32 µg/mL and the MIC (E. coli ML1410 RP4; ML1410RP4, read-out: MIC concomitant, Concomitant (PIPC:SM = 1:1)) was 0.5 µg/mL. The MIC (C. freundii GN346; GN346, Concomitant (PIPC:SM = 1:1), read-out: MIC concomitant) was 8 µg/mL, the MIC (C. freundii GN346; [10]) was 1 µg/mL and the MIC (S. marcescens X 100; X100, Concomitant (PIPC:SM = 1:1), read-out: MIC concomitant) was 0.25 µg/mL. It also gave an MIC (S. marcescens X 100; [11]) of 0.5 µg/mL, an MIC (S. marcescens GN6473; GN6473, Concomitant (PIPC:SM = 1:1), read-out: MIC concomitant) of 4 µg/mL and an MIC (S. marcescens GN6473; [12]) of over 32 µg/mL. For the same molecule, the MIC (P. mirabiris GN2425; GN2425, read-out: MIC alone, drug alone) was 0.25 µg/mL and the MIC (P. mirabiris GN2425; GN2425, read-out: MIC concomitant, Concomitant (PIPC:SM = 1:1)) was 0.063 µg/mL.
